Experimental findings from patent US8877763B2, “Substituted pyridopyrimidine compounds and their use as FLT3 inhibitors” (Genosco, priority 2012, dated 2014) are described below.

Usually IC50 stands for the concentration at which inhibition is half-maximal. Low readings indicate inhibition by little substance, high ones a need for much substance.

Assay [1] concerns MV4-11 cells expressing human FLT3-ITD. The assay can be described thus: Cell viability assay: inhibition of FLT3-ITD-positive cells (ATPLite). It counts as cell-based. The following applies: 72 hour incubation. How it is done:
Compounds of the invention were tested for cell viability effect on MV4-11 cells. For cell viability assay, MV4-11 cells expressing human FLT3-ITD were obtained from the American Type Culture Collection (ATCC, Manassas, Va.). This cell line was maintained with an Roswell Park Memorial Institute (RPMI) medium (HyClone™) containing 10 bovine calf serum (BCS; Hyclone™) supplemented iron. The MV4-11 cells were seeded at 2×10^4 cells in 96-well culture plates, and serially diluted compound was then added. After a 72 hour incubation period at 37° C., cell viability was measured using the ATPLite 1 step assay (Perkin-Elmer™) that is based on the quantification of ATP from viable cells. CellTiter Aqueous assay (Promega™) was also performed in parallel as an orthogonal assay. IC50 values were calculated using nonlinear regression and defined as the concentration needed for a 50 reduction in luminescence or absorbance treated versus untreated control cells (Prism™ Software).

Another assay has as its target T1, JAK2 (Homo sapiens, UniProt O60674).
T1 construct: Truncated human FLT3 wildtype, mutant D835Y, and JAK2; purchased Carna Biosciences
The assay can be described thus: Inhibition of enzymatic JAK2 kinase activity (Lance Ulight TR-FRET). It counts as biochemical. How it is done:
(§1) Compounds of the invention were initially diluted to 10 mM in 100% DMSO (CALBIOCHEM™) for storage and made into kinase buffer solution to create a compound concentration ranging from 1 uM and 10 uM. Serial dilutions of compounds of the invention were dispensed into a 96-well plate (GREINER BIOSCIENCES™) at 6 μL each.

Another assay has as its target T2, FLT3 mutant D835Y (Homo sapiens, UniProt P36888, D835Y).
T2 construct: Truncated human FLT3 wildtype, mutant D835Y; purchased Carna Biosciences
T2 sequence (P36888 564-993 D835Y limits assumed): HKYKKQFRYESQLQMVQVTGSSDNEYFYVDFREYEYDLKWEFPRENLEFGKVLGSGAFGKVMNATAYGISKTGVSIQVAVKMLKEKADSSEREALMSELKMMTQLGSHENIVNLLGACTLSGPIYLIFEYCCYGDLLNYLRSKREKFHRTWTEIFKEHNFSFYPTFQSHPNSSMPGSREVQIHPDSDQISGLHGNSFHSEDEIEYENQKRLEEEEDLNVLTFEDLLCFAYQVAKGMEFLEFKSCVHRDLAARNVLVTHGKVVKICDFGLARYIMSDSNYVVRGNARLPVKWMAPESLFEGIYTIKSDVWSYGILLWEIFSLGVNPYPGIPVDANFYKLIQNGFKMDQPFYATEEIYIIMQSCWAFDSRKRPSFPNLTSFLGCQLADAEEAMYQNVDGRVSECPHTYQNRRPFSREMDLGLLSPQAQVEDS
As to the kind of experiment: Inhibition of enzymatic FLT3 mutant D835Y kinase activity (Lance Ulight TR-FRET). It counts as biochemical. How it is done: as §1
On the technique in general: TR-FRET usually uses a lanthanide donor and a delayed reading to cut background.

Assay [2] deals with T3, Truncated human FLT3 wildtype (Homo sapiens, UniProt P36888).
T3 construct: Truncated human FLT3 wildtype; purchased Carna Biosciences
T3 sequence (P36888 564-993 limits assumed): T2 sequence (P36888 564-993 D835Y limits assumed) with Y272D
The assay can be described thus: Inhibition of enzymatic FLT3 wildtype kinase activity (Lance Ulight TR-FRET). It counts as biochemical. How it is done:
as §1

Assay [3] deals with MV4-11 cell line of FLT3-ITD. As to the kind of experiment: Xenograft mouse model using MV4-11 cell line. The format is in vivo, Balb/C nude mice. The following applies: for Means of Tumor Volume / Percent Tumor Regression (PTR %): 30 mg/kg every day. How it is done: Compounds of the invention were tested in xenograft mouse model using MV4-11 cell line of FLT3-ITD. All male animals of 6 weeks old Balb/C nude mice were housed in plastic cages (4˜6 mice/cage) containing corn cob and maintained in a pathogen-free facility (20˜25° C., 30˜70% humidity) with a 12 hour light:dark cycle. Tumor model was established by subcutaneous injection with MV4-11 cell suspension. When the average tumor volume reached approximately 400 mm^3 (˜5 weeks post tumor implantation), the tumor bearing-mice were assigned 2 groups (9 mice per each). The compound 238 treatment of 30 mg/kg every day was initiated and continue for 28 days. The vehicle 20% hydroxyl-β-cyclodextrin was used. Tumor volume was measured twice weekly. Where applicable, percent tumor regression (PTR) for each group will be calculated by the formula: PTR=100×(tumor volumeinitial−tumor volumefinal)/(tumor volumeinitial).

Substitutions are numbered along the chain they refer to. Counter-ions that a name gives are not always drawn.

T1 sequence (O60674 826-1132 limits assumed): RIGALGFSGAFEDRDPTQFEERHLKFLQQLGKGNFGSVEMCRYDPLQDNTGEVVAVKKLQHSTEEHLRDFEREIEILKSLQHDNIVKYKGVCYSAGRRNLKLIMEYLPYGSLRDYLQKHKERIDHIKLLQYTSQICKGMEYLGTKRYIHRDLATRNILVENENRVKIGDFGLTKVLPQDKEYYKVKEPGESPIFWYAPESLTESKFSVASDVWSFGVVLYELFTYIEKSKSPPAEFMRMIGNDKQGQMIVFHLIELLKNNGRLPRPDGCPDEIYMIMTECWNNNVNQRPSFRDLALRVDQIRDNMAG

With `CN1CCC(Nc2nc(Nc3ccc(Oc4ccc(F)c(F)c4)cc3)c3c(=O)[nH]cc(Br)c3n2)CC1` [Compound 241, 8-bromo-4-((4-(3,4-difluorophenoxy)phenyl)amino)-2-((1-methylpiperidin-4-yl)amino)pyrido[4,3-d]pyrimidin-5(6H)-one hydrochloride], the IC50 in assay [1] (Homo sapiens, MV4-11, 72 h) came out at 0.9 nM; at JAK2, 1050 nM; against FLT3 mutant D835Y, 0.6 nM; in assay [2], 1.6 nM.

With `CN1CCC(Nc2nc(Nc3ccc(OCc4ccccc4)cc3)c3c(=O)[nH]cc(Br)c3n2)CC1` [Compound 221, 4-((4-(benzyloxy)phenyl)amino)-8-bromo-2-((1-methylpiperidin-4-yl)amino)pyrido[4,3-d]pyrimidin-5(6H)-one], the IC50 in assay [1] (Homo sapiens, MV4-11, 72 h) was found to be 2.4 nM; at JAK2 it was 290 nM; against FLT3 mutant D835Y, 0.4 nM; in assay [2] it was 0.1 nM.

Regarding `CN1CCC(Nc2nc(Nc3cccc(Oc4ccccc4)c3)c3c(=O)[nH]cc(Br)c3n2)CC1` [Compound 246, 8-bromo-2-((1-methylpiperidin-4-yl)amino)-4-((3-phenoxyphenyl)amino)pyrido[4,3-d]pyrimidin-5(6H)-one], the IC50 in assay [1] (Homo sapiens, MV4-11, 72 h) turned out to be 1.4 nM; on JAK2, 260 nM; at FLT3 mutant D835Y, 1.7 nM; in assay [2], 0.1 nM.

As to `CN1CCC(Nc2nc(Nc3ccc(OCC4CCCC4)cc3)c3c(=O)[nH]cc(Br)c3n2)CC1` [Compound 235, 8-bromo-4-((4-(cyclopentylmethoxy)phenyl)amino)-2-((1-methylpiperidin-4-yl)amino)pyrido[4,3-d]pyrimidin-5(6H)-one], the IC50 in assay [1] (Homo sapiens, MV4-11, 72 h) came out at 1.6 nM.

With `CN1CCC(Nc2nc(Nc3ccc(Oc4cccc(F)c4)cc3)c3c(=O)[nH]cc(Br)c3n2)CC1` [Compound 240, 8-bromo-4-((4-(3-fluorophenoxy)phenyl)amino)-2-((1-methylpiperidin-4-yl)amino) pyrido[4,3-d]pyrimidin-5(6H)-one], the IC50 stood at 0.5 nM in assay [1], 599 nM against JAK2, 1.3 nM against FLT3 mutant D835Y and 1.2 nM in assay [2].

Regarding `CN1CCC(Nc2nc(Nc3ccc(OC4CCCC4)cc3)c3c(=O)[nH]cc(Br)c3n2)CC1` [Compound 237, 8-bromo-4-(4-(cyclopentyloxy)phenylamino)-2-(1-methylpiperidin-4-ylamino)pyrido[4,3-d]pyrimidin-5(6H)-one hydrochloride], in assay [1] (Homo sapiens, MV4-11, 72 h), it took 0.5 nM to reach half-maximal inhibition (IC50).

Take `CN1CCC(Nc2nc(Nc3ccc(OC4CCCC4)cc3)c3c(=O)[nH]cc(Br)c3n2)CC1` [Compound 223, 8-bromo-4-((4-(cyclopentyloxy)phenyl)amino)-2-((1-methylpiperidin-4-yl)amino)pyrido[4,3-d]pyrimidin-5(6H)-one]: the values for the IC50 (on JAK2; on FLT3 mutant D835Y; in assay [2]) were 153 nM, 0.3 nM and 0.6 nM, respectively.

`CN1CCC(Nc2nc(Nc3ccc(OC4CCCCC4)cc3)c3c(=O)[nH]cc(Br)c3n2)CC1` [Compound 228, 8-bromo-4-((4-(cyclohexyloxy)phenyl)amino)-2-((1-methylpiperidin-4-yl)amino)pyrido[4,3-d]pyrimidin-5(6H)-one]: the IC50 in assay [1] was found to be 0.8 nM; on JAK2, 129 nM; on FLT3 mutant D835Y, 0.6 nM; in assay [2] it was 0.1 nM.

As to `Cc1ccc(Oc2ccc(Nc3nc(NC4CCN(C)CC4)nc4c(Br)c[nH]c(=O)c34)cc2)cc1` [Compound 225, 8-bromo-2-((1-methylpiperidin-4-yl)amino)-4-((4-(p-tolyloxy)phenyl)amino)pyrido[4,3-d]pyrimidin-5(6H)-one], the IC50 amounted to 1520 nM against JAK2, 1.6 nM at FLT3 mutant D835Y and 0.3 nM in assay [2].

For the molecule `CN1CCC(Nc2nc(Nc3ccc(Oc4ccccc4)cc3)c3c(=O)[nH]cc(Br)c3n2)CC1` [Compound 226, 8-Bromo-2-(1-methylpiperidin-4-ylamino)-4-(4-phenoxyphenylamino)pyrido[4,3-d]pyrimidin-5(6H)-one hydrochloride], the midpoint of inhibition at JAK2, the IC50, lay at 281 nM.

On to `CN1CCC(Nc2nc(Nc3ccc(Oc4cccc(F)c4)cc3)c3c(=O)[nH]cc(Br)c3n2)CC1.Cl` [Compound 238, 8-bromo-4-(4-(3-fluorophenoxy)phenylamino)-2-(1-methylpiperidin-4-ylamino)pyrido[4,3-d]pyrimidin-5(6H)-one hydrochloride], for which the “Means of Tumor Volume” value came out at 312.8 mm^3 in assay [3] (day of treatment 1); 79.4 mm^3 in assay [3] (day of treatment 4); 27.6 mm^3 in assay [3] (day of treatment 7); 0 mm^3 in assay [3] (day of treatment 11); 0 mm^3 in assay [3] (day of treatment 14); 0 mm^3 in assay [3] (day of treatment 17). Moreover, the “Means of Tumor Volume” value in assay [3] (day of treatment 21), in assay [3] (day of treatment 25) and in assay [3] (day of treatment 28) was 0 mm^3 in each case. Moreover, the “Percent Tumor Regression (PTR %)” value in assay [3] (day of treatment 4) came out at 74.6%; in assay [3] (day of treatment 7), 91.2%; in assay [3] (day of treatment 11), 100%; in assay [3] (day of treatment 14), 100%; in assay [3] (day of treatment 17), 100%; in assay [3] (day of treatment 21) it was 100%. In addition, the “Percent Tumor Regression (PTR %)” value in assay [3] (day of treatment 25) and in assay [3] (day of treatment 28) was 100% in each case. Further, the “tumor regression (in words)” value in assay [3] (after 11 days of compound treatment) was “complete tumor regression”. In addition, the IC50 worked out at 1.9 nM in assay [1] (hydrochloride), 845 nM against JAK2, 0.4 nM against FLT3 mutant D835Y and 1.4 nM in assay [2]. Besides, the “inhibition of kinase activity of FLT3 mutant D835Y (in words)” value against FLT3 mutant D835Y is “strong inhibition”. Moreover, the “inhibition of kinase activity of FLT3 wildtype (in words)” value in assay [2] is recorded as “strong inhibition”.

As to `CN1CCC(Nc2nc(Nc3ccc(OC4CCCCC4)cc3)c3c(=O)[nH]cc(Br)c3n2)CC1` [Compound 233, 8-bromo-4-((4-(cyclohexyloxy)phenyl)amino)-2-((1-methylpiperidin-4-yl)amino) pyrido[4,3-d]pyrimidin-5(6H)-one hydrochloride], the IC50 stood at 1.4 nM in assay [1] (Homo sapiens, MV4-11, 72 h); 173 nM against JAK2; 0.3 nM on FLT3 mutant D835Y.
